Measurements taken from US9150546B2, “Triazine derivative and pharmaceutical composition comprising the same” (SHIONOGI & CO., LTD., priority 2009, dated 2015).

These compounds were tested against human P2X3 receptor (Homo sapiens (Human), UniProt P56373) (assay: P2X3 receptor inhibition, ATP-evoked Fluo-3 fluorescence (FDSS 3000)). Conditions: C6BU-1 cell transfected with human P2X3 receptor gene.
Assay type: cell-based

Chain of human P2X3 receptor (P56373 whole entry): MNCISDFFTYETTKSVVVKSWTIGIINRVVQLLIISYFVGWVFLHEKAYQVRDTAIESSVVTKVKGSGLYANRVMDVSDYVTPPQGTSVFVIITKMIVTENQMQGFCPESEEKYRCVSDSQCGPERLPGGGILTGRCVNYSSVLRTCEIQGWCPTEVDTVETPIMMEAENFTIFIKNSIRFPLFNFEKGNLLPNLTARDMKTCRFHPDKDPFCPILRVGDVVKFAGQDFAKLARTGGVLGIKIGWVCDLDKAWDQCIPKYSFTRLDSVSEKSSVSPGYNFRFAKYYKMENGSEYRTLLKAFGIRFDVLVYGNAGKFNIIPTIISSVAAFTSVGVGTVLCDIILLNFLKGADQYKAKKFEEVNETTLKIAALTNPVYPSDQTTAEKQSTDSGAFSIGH

In order of falling IC50:
1. CC(C)n1c(=O)nc(Nc2ccc(C#N)cc2)n(Cc2ccc(Cl)cc2)c1=O [I-372]  0.964 µM
2. CCC[S+]([O-])c1ccc(Nc2nc(=O)n(CCO)c(=O)n2Cc2ccc(Cl)cc2)cc1 (stereo not shown) [I-385]  0.908 µM
3. CC(C)(Cn1c(=O)[nH]/c(=N\c2ccc(O)c(Cl)c2)n(Cc2ccc(Cl)cc2)c1=O)C(=O)O [I-429]  0.779 µM
4. COC(=O)C(C)(C)Cn1c(=O)[nH]/c(=N\c2ccc3c(ccn3C)c2)n(Cc2ccc(Cl)cc2)c1=O [I-427]  0.678 µM
5. O=c1nc(Nc2ccc(OC(F)(F)F)cc2)n(Cc2ccc(Cl)cc2)c(=O)n1CCO [I-383]  0.532 µM
6. COC(=O)C(C)(C)Cn1c(=O)[nH]/c(=N\c2ccc(C(=O)C(C)(C)C)cc2)n(Cc2ccc(Cl)cc2)c1=O [I-402]  0.443 µM
7. CC(C)Oc1ccc(Nc2nc(=O)n(C(C)C)c(=O)n2Cc2ccc(Cl)cc2)cn1 [I-394]  0.435 µM
8. CC(C)c1cccc(Nc2nc(=O)n(CCO)c(=O)n2Cc2ccc(Cl)cc2)c1 [I-378]  0.347 µM
9. CCCSc1ccc(Nc2nc(=O)n(CCO)c(=O)n2Cc2ccc(Cl)cc2)cc1 [I-379]  0.33 µM
10. Cc1ccc(Cn2c(=O)n(CC(=O)NC(C)(C)C(=O)O)c(=O)[nH]/c2=N\c2ccc(OC(C)C)c(F)c2)cc1 [I-415]  0.314 µM
11. COC(=O)C(C)(C)Cn1c(=O)[nH]/c(=N\c2ccc(O)c(Cl)c2)n(Cc2ccc(Cl)cc2)c1=O [I-426]  0.211 µM
12. COC(=O)C(C)(C)Cn1c(=O)[nH]/c(=N\c2cccc(OC(F)F)c2)n(Cc2ccc(Cl)cc2)c1=O [I-443]  0.207 µM
13. Cc1ccc(Cn2c(=O)n(CC(=O)N[C@@H](C)C(=O)O)c(=O)[nH]/c2=N\c2ccc(OC(C)C)c(F)c2)cc1 [I-418]  0.2 µM
14. COc1nc(=O)n(Cc2ccc(Cl)cc2)/c(=N/c2ccc(OC(C)C)c(Cl)c2)[nH]1 [I-433]  0.199 µM
15. O=c1nc(Nc2ccc(Cl)c(Cl)c2)n(Cc2ccc(Cl)cc2)c(=O)n1CCO [I-373]  0.185 µM
16. O=c1nc(Nc2ccc(OC(F)F)cc2)n(Cc2ccc(Cl)cc2)c(=O)n1CC(CO)CO [I-370]  0.154 µM
17. O=c1nc(Nc2ccc(OC(F)F)cc2)n(Cc2ccc(Cl)cc2)c(=O)n1CCCO [I-360]  0.148 µM
18. CC(C)Oc1ccc(Nc2nc(=O)n(CCN3C(=O)CNC3=O)c(=O)n2Cc2ccc(Cl)cc2)cc1F [I-391]  0.133 µM
19. COC(=O)C(C)(C)Cn1c(=O)[nH]/c(=N\c2ccc(OC)c(C)c2)n(Cc2ccc(Cl)cc2)c1=O [I-442]  0.117 µM
20. Cc1ccc(Cn2c(=O)n(CC(C)(C)C(=O)O)c(=O)[nH]/c2=N\c2ccc(OC(C)C)c(F)c2)cc1F [I-413]  0.099 µM
21. CC(C)Oc1ccc(Nc2nc(=O)n(CCC(=O)O)c(=O)n2CC2CCCCC2)cc1Cl [I-382]  0.096 µM
22. O=c1nc(Nc2ccc(OC3CCCC3)c(Cl)c2)n(Cc2ccc(Cl)cc2)c(=O)n1CCO [I-374]  0.08 µM
23. CCOc1ccc(Nc2nc(=O)n(CCCO)c(=O)n2Cc2ccc(Cl)cc2)cc1 [I-361]  0.076 µM
24. Cc1ccc(Cn2c(=O)n(CC(=O)NC3(C(=O)O)CC3)c(=O)[nH]/c2=N\c2ccc(OC(C)C)c(F)c2)cc1 [I-419]  0.071 µM
25. CC(C)Oc1ccc(Nc2nc(=O)n(CCNC(=O)NCCO)c(=O)n2Cc2ccc(Cl)cc2)cc1F [I-390]  0.067 µM
26. CCNC(=O)NCCn1c(=O)nc(Nc2ccc(OC(C)C)c(F)c2)n(Cc2ccc(Cl)cc2)c1=O [I-389]  0.064 µM
27. CCOc1ccc(Nc2nc(=O)n(CC(CO)CO)c(=O)n2Cc2ccc(Cl)cc2)cc1 [I-371]  0.063 µM
28. Cc1ccc(Cn2c(=O)n(CCC(=O)O)c(=O)[nH]/c2=N\c2ccc(OC(C)C)c(F)c2)cc1 [I-411]  0.061 µM
29. CC(C)Oc1ccc(/N=c2\[nH]c(=O)n(CCC(=O)NCC(N)=O)c(=O)n2Cc2ccc(Cl)cc2)cc1F [I-440]  0.055 µM
30. CC(C)Oc1ccc(/N=c2\[nH]c(=O)n(CCC(C)(C)C(=O)O)c(=O)n2Cc2ccc(Cl)cc2)cc1F [I-420]  0.053 µM
31. CC(C)Oc1ccc(/N=c2\[nH]c(=O)n(CC3(C(=O)O)CC3)c(=O)n2Cc2ccc(Cl)cc2)cc1F [I-424]  0.049 µM
32. O=c1nc(Nc2cccc(C(F)(F)F)c2)n(Cc2ccc(Cl)cc2)c(=O)n1CCCO [I-357]  0.047 µM
33. CC(C)Cc1ccc(Nc2nc(=O)n(CC(CO)CO)c(=O)n2Cc2ccc(Cl)cc2)cc1 [I-366]  0.046 µM
34. CC(C)Oc1ccc(/N=c2\[nH]c(=O)n(CC(=O)NCC(=O)O)c(=O)n2Cc2ccc(Cl)cc2)cc1F [I-400]  0.044 µM
35. COC(=O)Cn1c(=O)[nH]/c(=N\c2ccc(OC(C)C)c(F)c2)n(Cc2ccc(C)cc2)c1=O [I-410]  0.044 µM
36. CC(C)Oc1ccc(Nc2nc(=O)n(CC(CO)CO)c(=O)n2Cc2ccc(Cl)cc2)cc1 [I-368]  0.041 µM
37. CC(C)Oc1ccc(Nc2nc(=O)n(CCNC(N)=O)c(=O)n2Cc2ccc(Cl)cc2)cc1F [I-386]  0.041 µM
38. CC(C)Oc1ccc(Nc2nc(=O)n(CCCO)c(=O)n2Cc2ccc(Cl)cc2)cc1 [I-359]  0.04 µM
39. O=c1nc(Nc2cccc(C(F)(F)F)c2)n(Cc2ccc(Cl)cc2)c(=O)n1CC(CO)CO [I-367]  0.04 µM
40. CC(C)Oc1ccc(Nc2nc(=O)n(CCNC(=O)NCC(=O)O)c(=O)n2Cc2ccc(Cl)cc2)cc1F [I-392]  0.038 µM
41. CNC(=O)NCCn1c(=O)nc(Nc2ccc(OC(C)C)c(F)c2)n(Cc2ccc(Cl)cc2)c1=O [I-387]  0.037 µM
42. CC(C)Oc1ccc(Nc2nc(=O)n(CCC(=O)NCCO)c(=O)n2Cc2ccc(Cl)cc2)cc1F [I-352]  0.036 µM
43. CC(C)Oc1ccc(Nc2nc(=O)n(CCNC(=O)N(C)C)c(=O)n2Cc2ccc(Cl)cc2)cc1F [I-388]  0.036 µM
44. Cc1ccc(Cn2c(=O)n(CC(=O)NCC(=O)O)c(=O)[nH]/c2=N\c2ccc(OC(C)C)c(F)c2)cc1 [I-416]  0.035 µM
45. Cc1ccc(Cn2c(=O)n(CC(=O)N[C@H](C)C(=O)O)c(=O)[nH]/c2=N\c2ccc(OC(C)C)c(F)c2)cc1 [I-417]  0.035 µM
46. CCOC(=O)CCn1c(=O)nc(Nc2ccc(OC(C)C)c(Cl)c2)n(CC2CCCCC2)c1=O [I-380]  0.034 µM
47. Cc1ccc(Cn2c(=O)n(CC(C)(C)C(=O)O)c(=O)[nH]/c2=N\c2ccc(OC(C)C)c(F)c2)cc1 [I-405]  0.032 µM
48. CC(C)Oc1ccc(/N=c2\[nH]c(=O)n(CCC(C)(C)C(=O)OCc3ccccc3)c(=O)n2Cc2ccc(Cl)cc2)cc1F [I-406]  0.03 µM
49. CC(C)Oc1ccc(/N=c2\[nH]c(=O)n(CCC(C)(C)C(=O)OCc3ccccc3)c(=O)n2Cc2ccc(Cl)cc2)cc1Cl [I-407]  0.027 µM
50. Cc1cc(/N=c2\[nH]c(=O)n(CC(C)(C)C(=O)O)c(=O)n2Cc2ccc(Cl)cc2)ccc1OC(C)C [I-432]  0.026 µM
51. COC(=O)CNC(=O)Cn1c(=O)[nH]/c(=N\c2ccc(OC(C)C)c(F)c2)n(Cc2ccc(Cl)cc2)c1=O [I-397]  0.019 µM
52. CC(C)Oc1ccc(/N=c2\[nH]c(=O)n(CCC(C)(C)C(=O)O)c(=O)n2Cc2ccc(Cl)cc2)cc1Cl [I-421]  0.019 µM
53. CC(C)Oc1ccc(Nc2nc(=O)n(CC(=O)NCCO)c(=O)n2Cc2ccc(Cl)cc2)cc1F [I-353]  0.018 µM
54. CC(C)Oc1ccc(/N=c2\[nH]c(=O)n(CCC(=O)NCC#N)c(=O)n2Cc2ccc(Cl)cc2)cc1F [I-439]  0.018 µM
55. CC(C)Oc1ccc(/N=c2\[nH]c(=O)n(CC3(C(=O)O)CC3)c(=O)n2Cc2ccc(Cl)cc2)cc1Cl [I-425]  0.016 µM
56. CC(C)Oc1ccc(Nc2nc(=O)n(CCO)c(=O)n2Cc2ccc(Cl)cc2)cc1Cl [I-351]  0.015 µM
57. COC(=O)C(C)(C)Cn1c(=O)[nH]/c(=N\c2ccc(OC(C)C)c(F)c2)n(Cc2ccc(Cl)cc2)c1=O [I-403]  0.015 µM
58. CCOC(=O)CCn1c(=O)nc(Nc2ccc(OC(C)C)c(F)c2)n(Cc2ccc(Cl)cc2)c1=O [I-356]  0.012 µM
59. COC(=O)C(C)(C)Cn1c(=O)[nH]/c(=N\c2ccc(OC(C)C)c(F)c2)n(Cc2ccc(C)cc2)c1=O [I-404]  0.012 µM
60. COC(=O)CCn1c(=O)[nH]/c(=N\c2ccc(OC(C)C)c(F)c2)n(Cc2ccc(C)cc2)c1=O [I-409]  0.012 µM
61. CCOc1ccc(/N=c2\[nH]c(=O)n(CC(C)(C)C(=O)OC)c(=O)n2Cc2ccc(Cl)cc2)cc1Cl [I-441]  0.011 µM
62. CC(C)Oc1ccc(Nc2nc(=O)n(CCOC3CCCCO3)c(=O)n2Cc2ccc(Cl)cc2)cc1Cl (stereo not shown) [I-350]  0.01 µM
63. Cc1ccc(Cn2c(=O)n(CC(C)(C)C(=O)O)c(=O)[nH]/c2=N\c2ccc(OC(C)C)c(Cl)c2)cc1 [I-408]  0.01 µM
64. CCOC(=O)CCn1c(=O)nc(Nc2ccc(OC(C)C)c(Cl)c2)n(Cc2ccc(Cl)cc2)c1=O [I-354]  0.008 µM
65. COC(=O)C(C)(C)Cn1c(=O)[nH]/c(=N\c2ccc(OC(C)C)c(Cl)c2)n(Cc2ccc(Cl)cc2)c1=O [I-399]  0.008 µM
66. CNC(=O)Cn1c(=O)[nH]/c(=N\c2ccc(OC(C)C)c(Cl)c2)n(Cc2ccc(Cl)cc2)c1=O [I-436]  0.008 µM
67. CC(C)Oc1ccc(Nc2nc(=O)n(CCCO)c(=O)n2Cc2ccc(Cl)cc2)cc1Cl [I-362]  0.007 µM
68. CC(C)Oc1ccc(/N=c2\[nH]c(=O)n(CC(=O)NC(CO)CO)c(=O)n2Cc2ccc(Cl)cc2)cc1F [I-398]  0.007 µM
69. CC(C)Oc1ccc(/N=c2\[nH]c(=O)n(CC(C)(C)C(=O)O)c(=O)n2Cc2ccc(Cl)cc2)cc1Cl [I-401]  0.007 µM
70. Cc1ccc(Cn2c(=O)n(CC(=O)NC(CO)CO)c(=O)[nH]/c2=N\c2ccc(OC(C)C)c(F)c2)cc1 [I-414]  0.007 µM
71. CCOC(=O)C1(Cn2c(=O)[nH]/c(=N\c3ccc(OC(C)C)c(F)c3)n(Cc3ccc(Cl)cc3)c2=O)CC1 [I-422]  0.006 µM
72. CC(C)Oc1ccc(/N=c2\[nH]c(=O)n(CC(=O)NCC#N)c(=O)n2Cc2ccc(Cl)cc2)cc1Cl [I-435]  0.006 µM
73. CC(C)Oc1ccc(/N=c2\[nH]c(=O)n(CC(=O)NCCO)c(=O)n2Cc2ccc(Cl)cc2)cc1Cl [I-437]  0.006 µM
74. CC(C)Oc1ccc(/N=c2\[nH]c(=O)n(CC(=O)NCC(N)=O)c(=O)n2Cc2ccc(Cl)cc2)cc1Cl [I-438]  0.005 µM
75. CCOC(=O)C1(Cn2c(=O)[nH]/c(=N\c3ccc(OC(C)C)c(Cl)c3)n(Cc3ccc(Cl)cc3)c2=O)CC1 [I-423]  0.004 µM
76. COC(=O)C(C)(C)Cn1c(=O)[nH]/c(=N\c2ccc(OC(C)C)c(C)c2)n(Cc2ccc(Cl)cc2)c1=O [I-431]  0.004 µM
